Measured values taken from patent publication US20070244103A1, “Novel Compounds Having an Anti-Bacterial Activity” (Morphochem Aktiengesellschaft Fur Kombinatorische Chemie, priority 2004, published 2007).

assay: MIC of the examples against various organisms; format: cell-based; conditions: against at least two of the above organisms (12-strain panel)
Procedure: The MIC (μg/ml) of the examples against various organisms was determined: A. baumannii ATCC19606, E. cloacae ATCC23355, E. coli ATCC25922, K. pneumoniae ATCC27736, P. mirabilis ATCC29906, P. aeruginosa ATCC27853, S. maltophilia ATCC13637, S. aureus ATCC43300, S. epidermidis ATCC14990, S. haemolyticus ATCC29970, E. faecalis ATCC29212 and E. faecium ATC19434.

Structure (SMILES)	MIC [mg/L]
COc1cnc2cccc(C(O)CN3C4CCC3CC(NC/C=C/c3ccccn3)C4)c2c1 (single isomer, unassigned) [Example 35, 1-(3-Methoxy-quinolin-5-yl)-2-[3-((E)-3-pyridin-2-yl-allylamino)-8-aza-bicyclo[3.2.1]oct-8-yl]-ethanol]	≤ 2
COc1cnc2cccc(C(O)CN3C4CCC3CC(NCc3ccc5c(c3)OCO5)C4)c2n1 (stereo not drawn) [Example 81, 2-{3-[(Benzo[1,3]dioxol-5-ylmethyl)-amino]-8-aza-bicyclo[3.2.1]oct-8-yl}-1-(3-methoxy-quinoxalin-5-yl)-ethanol]	≤ 2
COc1ccc2ncc(Cl)c(C(O)CN3C4CCC3CC(NCc3cc5c(cc3F)SCC(=O)N5)C4)c2n1 (stereo not drawn) [Example 28, 6-({8-[2-(3-Chloro-6-methoxy-[1,5]-naphthyridin-4-yl)-2-hydroxy-ethyl]-8-aza-bicyclo[3.2.1]oct-3-ylamino}-methyl)-7-fluoro-4H-benzo[1,4]thiazin-3-one]	≤ 2
COc1ccc2nccc(C(O)CN3CCCC(CNCc4ccc5c(c4)NC(=O)CS5)C3)c2n1 (single isomer, unassigned) [Example 6, 6-[({1-[2-Hydroxy-2-(6-methoxy-[1,5]-naphthyridin-4-yl)-ethyl]-piperidin-3-ylmethyl}-amino)-methyl]-4H-benzo[1,4]thiazin-3-one]	≤ 2
COc1ccc2ncc(Cl)c(C(O)CN3C4CCC3CC(NCc3ccc5nsnc5c3)C4)c2n1 (stereo not drawn) [Example 26, 2-{3-[(Benzo[1,2,5]thiadiazol-5-ylmethyl)-amino]-8-aza-bicyclo[3.2.1]oct-8-yl}-1-(3-chloro-6-methoxy-[1,5]-naphthyridin-4-yl)-ethanol]	≤ 2
COc1ccc2nccc(NC(=O)C3CCCC(CNCc4ccc5c(c4)OCCO5)C3)c2n1 (stereo not drawn) [Example 19, 3-{[(2,3-Dihydro-benzo[1,4]dioxin-6-ylmethyl)-amino]-methyl}-cyclohexanecarboxylic acid (6-methoxy-[1,5]-naphthyridin-4-yl)-amide]	≤ 2
COc1cnc2cccc(C(O)CN3CCCC(CNCc4cc5c(cn4)OCCO5)C3)c2c1 (single isomer, unassigned) [Example 43, 2-(3-{[(2,3-Dihydro-[1,4]dioxino[2,3-c]pyridin-7-ylmethyl)-amino]-methyl}-piperidin-1-yl)-1-(3-methoxy-quinolin-5-yl)-ethanol]	≤ 2
COc1ccc2nccc(C(O)CN3C4CCC3CC(NCc3ccc5nsnc5c3)C4)c2n1 (single isomer, unassigned) [Example 11, 2-{3-[(Benzo[1,2,5]thiadiazol-5-ylmethyl)-amino]-8-aza-bicyclo[3.2.1]oct-8-yl}-1-(6-methoxy-[1,5]-naphthyridin-4-yl)-ethanol]	≤ 2
COc1ccc2nccc(NC(=O)C3CCCC(CNC/C=C/c4ccccc4)C3)c2n1 (stereo not drawn) [Example 22, 3-[((E)-3-Phenyl-allylamino)-methyl]-cyclohexanecarboxylic acid (6-methoxy-[1,5]-naphthyridin-4-yl)-amide]	≤ 2
COc1cnc2cccc(C(O)CN3CCCC(CNCc4ccc5c(c4)NC(=O)CO5)C3)c2n1 (stereo not drawn) [Example 87, 6-[({1-[2-Hydroxy-2-(3-methoxy-quinoxalin-5-yl)-ethyl]-piperidin-3-ylmethyl}-amino)-methyl]-4H-benzo[1,4]oxazin-3-one]	≤ 2
COc1ccc2ncc(Cl)c(C(O)CN3C4CCC3CC(NCc3ccc5c(c3)OCCO5)C4)c2c1 (single isomer, unassigned) [Example 62, 1-(3-Chloro-6-methoxy-quinolin-4-yl)-2-{3-[(2,3-dihydro-benzo[1,4]dioxin-6-ylmethyl)-amino]-8-aza-bicyclo[3.2.1]oct-8-yl}-ethanol]	≤ 2
COc1ccc2nccc(C(O)CN3C4CCC3CC(NC/C=C/c3ccccc3)C4)c2n1 (single isomer, unassigned) [Example 14, 1-(6-Methoxy-[1,5]-naphthyridin-4-yl)-2-[3-((E)-3-phenyl-allylamino)-8-aza-bicyclo[3.2.1]oct-8-yl]-ethanol]	≤ 2
